Holding throughout (assay): NCI tumour cell line growth inhibition, 48 h
Test [1] relates to HOP-92.
Test [2] deals with NCI-H23.
Test [3] relates to HCT-116.
Test [4] deals with UACC-62.
In test [5] the test system is NCI-H226.
Test [6] relates to SF-268.
The subject of test [7] is Malme-3M.
Test [8] relates to HL-60.
For test [9], the system named is CAKI-1.
In test [10] the test system is SK-MEL-28.
Test [11] deals with OVCAR-4.
Test [12] deals with LOX IMVI.
In test [13] the test system is KM12.
Test [14] relates to A549.
Test [15] concerns SR.
For test [16], the system named is NCI/ADR-RES.
The test system of test [17] is A498.
Test [18] deals with SNB-19.
Test [19] concerns SN12C.
Test [20] has as its system MCF7.

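Exposure lasted 48 hours, with cells grown in 96-well plates and compounds tested at five concentrations. At the GI50, growth is halved.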 The source made the active and inactive calls. Cut-off read from the data, not from the text of the source: active = GI50 up to about 1.1 µM and inactive = higher.

As to `COC(=O)c1n[nH]c(C)c1/N=N/N(C)CCC#N`, the GI50 in test [1] is 14.7 µM (inactive); in test [2], 16.3 µM (inactive); in test [3], 16.4 µM (inactive); in [4] it was 15.7 µM (inactive); in [5], 12.8 µM (inactive); in test [6] it was 15.1 µM (inactive). The GI50 was 15.2 µM (inactive) in [7]; 27.5 µM (inactive) in test [8]; 11.3 µM (inactive) in test [9]; 29.8 µM (inactive) in test [10]; 12.9 µM (inactive) in test [11]; 8.18 µM (inactive) in [12]. Moreover, the GI50 in test [13] was 14.8 µM (inactive); in test [14] it was 16.1 µM (inactive); in test [15], 5.79 µM (inactive); in test [16] it was 16.2 µM (inactive); in [17] it was 76 µM (inactive); in test [18], 28.7 µM (inactive). In addition, the GI50 in test [19] was 16.5 µM (inactive); in [20], 7.14 µM (inactive).
Turning to `O=C1CSC2(CC(/C=C/c3ccccc3Br)=NN2c2cccc(S(=O)(=O)O)c2)N1c1nc2ccccc2s1` (stereo not given), the GI50 was 87.9 µM (inactive) in [1]; > 100 µM (inactive) in [2]; > 100 µM (inactive) in test [3]; 51.5 µM (inactive) in test [4]; 53.2 µM (inactive) in [5]; > 100 µM (inactive) in [6]. Besides, the GI50 was > 100 µM (inactive) in test [7]; > 100 µM (inactive) in [8]; > 100 µM (inactive) in [9]; > 100 µM (inactive) in test [10]; 75.9 µM (inactive) in test [11]; > 100 µM (inactive) in test [12]. Moreover, the GI50 is 98.4 µM (inactive) in test [13]; > 100 µM (inactive) in test [14]; 33 µM (inactive) in test [15]; > 100 µM (inactive) in test [16]; > 100 µM (inactive) in test [17]; > 100 µM (inactive) in test [18]. Also, the values for the GI50 in test [19] and in test [20] were > 100 µM (inactive) and 50.4 µM (inactive), respectively.
As to `Cc1ccc(C)c(C(=N)c2ccccc2Cc2ccccc2)c1`, the GI50 was 17 µM (inactive) in [1]; 26.9 µM (inactive) in test [2]; 12.6 µM (inactive) in test [3]; 14.2 µM (inactive) in [4]; 16.4 µM (inactive) in test [5]; 18.6 µM (inactive) in [6]. Besides, the GI50 was 13 µM (inactive) in test [7]; 18.5 µM (inactive) in test [8]; 22.6 µM (inactive) in test [9]; 26.4 µM (inactive) in test [10]; 19.4 µM (inactive) in test [11]; 17.3 µM (inactive) in [12]. Besides, the GI50 in test [13] is 20.2 µM (inactive); in [14], 24.2 µM (inactive); in test [15] it was 19.2 µM (inactive); in test [16] it was 25.4 µM (inactive); in test [17], 21.7 µM (inactive); in test [18], 42.6 µM (inactive). The GI50 in [19] is 17.3 µM (inactive); in test [20] it was 15.7 µM (inactive).
As for `Nc1ccc(Oc2ccc(C3(c4ccc(Oc5ccc(N)cc5)cc4)C4CC5C6CC7CC5C3C(C7)C6C4)cc2)cc1`, the GI50 in [1] is 0.668 µM (active); in [2], 26.3 µM (inactive); in [3], 18.3 µM (inactive); in [4] it was 38.4 µM (inactive); in test [5], > 55.8 µM (inactive); in test [6], > 53.2 µM (inactive). Further, the GI50 in test [7] is > 78.3 µM (inactive); in [8], 14 µM (inactive); in test [9], 39 µM (inactive); in test [10] it was > 100 µM (inactive); in test [11], 18.8 µM (inactive); in [12], 6.01 µM (inactive). The GI50 was 10.5 µM (inactive) in test [13]; 0.706 µM (active) in test [14]; 9.2 µM (inactive) in [15]; > 100 µM (inactive) in test [16]; 4.01 µM (inactive) in test [17]; 37.4 µM (inactive) in test [18]. In addition, the GI50 in [19] was 12.1 µM (inactive); in test [20], 7.53 µM (inactive).
Take `CSC(SC)=C1CC(=O)Nc2ccccc2C1=O`: the GI50 was 22.2 µM (inactive) in [1]; 29.9 µM (inactive) in test [2]; > 100 µM (inactive) in test [3]; 24.6 µM (inactive) in [4]; > 100 µM (inactive) in test [5]; > 100 µM (inactive) in test [6]. Further, the GI50 in test [7] is 37.4 µM (inactive); in test [8], 27.7 µM (inactive); in test [9], 34.1 µM (inactive); in [10], 36.8 µM (inactive); in test [11] it was > 100 µM (inactive); in [12] it was 17.4 µM (inactive). Further, the GI50 in test [13] was > 100 µM (inactive); in test [14], > 100 µM (inactive); in [15], 27.5 µM (inactive); in test [16], > 100 µM (inactive); in [17] it was > 100 µM (inactive); in test [18], > 100 µM (inactive). The GI50 was 63.1 µM (inactive) in test [19] and 47.6 µM (inactive) in [20].
`Cc1c2ccc3ccccc3c2c[n+]2ccccc12`: the GI50 was 13.5 µM (inactive) in test [1]; 4.91 µM (inactive) in [2]; 17.1 µM (inactive) in test [3]; 13.6 µM (inactive) in test [4]; 4.67 µM (inactive) in test [5]; 1.36 µM (inactive) in [6]. The GI50 in test [7] was 1.56 µM (inactive); in [8] it was 33.4 µM (inactive); in test [9] it was 53.6 µM (inactive); in [10] it was 9.55 µM (inactive); in test [11], 12 µM (inactive); in [12], 42.9 µM (inactive). Besides, the GI50 in [13] was 1.13 µM (inactive); in test [14], 3.72 µM (inactive); in test [15] it was 2.96 µM (inactive); in test [16], 55.2 µM (inactive); in test [17], > 47.5 µM (inactive); in test [18] it was 2.64 µM (inactive). In addition, the GI50 in test [19] was 2.94 µM (inactive); in [20], 10.4 µM (inactive).
Regarding `OC1CCCC1C(O)(C(F)(F)F)C(F)(F)F` (stereo not given), the GI50 in test [1], in test [2], in [3], in test [4], in test [5] and in test [6] was > 100 µM (inactive) in each case. Further, the GI50 in test [7], in test [8], in test [9], in [10], in test [11] and in [12] was > 100 µM (inactive) in each case. The GI50 in test [13], in [14], in test [15], in test [16], in [17] and in test [18] was > 100 µM (inactive) throughout. For the same compound, the GI50 in test [19] and in [20] was > 100 µM (inactive) each time.
`CCC1C2Cc3ccc(O)cc3C1(CC)CCN2C` (stereo not given): the GI50 in [1], in test [2], in test [3], in test [4], in test [5] and in [6] was > 100 µM (inactive) in each case. The GI50 in test [7], in test [8], in test [9], in [10], in [11] and in test [12] was > 100 µM (inactive) throughout. Also, the GI50 in test [13], in [14], in [15], in [16], in test [17] and in [18] was > 100 µM (inactive) in each case. In addition, the GI50 in test [19] and in test [20] was > 100 µM (inactive) each time.
In the case of `CN(C)c1ccc(/C=N/n2c(-c3ccccc3)nc3ccccc3c2=O)cc1`, the GI50 in test [1] is 90.8 µM (inactive); in test [2], 28.3 µM (inactive); in [3] it was 50.6 µM (inactive); in test [4], 58.9 µM (inactive); in test [5], 71.6 µM (inactive); in [6] it was 44 µM (inactive). Besides, the GI50 in [7] is > 100 µM (inactive); in test [8], 40 µM (inactive); in [9], 29.7 µM (inactive); in test [10], > 100 µM (inactive); in test [11], 47.9 µM (inactive); in [12], 80.2 µM (inactive). For the same compound, the GI50 in test [13] is 24.8 µM (inactive); in [14] it was 53.5 µM (inactive); in [15], 14.1 µM (inactive); in [16], 21.8 µM (inactive); in [17], > 100 µM (inactive); in [18], 40.8 µM (inactive). The values for the GI50 in test [19] and in test [20] were 80.9 µM (inactive) and > 100 µM (inactive), respectively.
Consider `O=S1(=O)N=C(SCc2ccccc2)N(c2ccccc2)c2ccncc21`, for which the GI50 in test [1] was 22.2 µM (inactive); in test [2], 29.6 µM (inactive); in test [3], 35.3 µM (inactive); in test [4] it was 44.4 µM (inactive); in [5] it was 37.6 µM (inactive); in test [6], 36.6 µM (inactive). The GI50 in test [7] is 49.5 µM (inactive); in [8], 29.6 µM (inactive); in test [9], 39.2 µM (inactive); in [10], 91.2 µM (inactive); in test [11], 23.3 µM (inactive); in test [12] it was 53.7 µM (inactive). In addition, the GI50 in [13] is 41 µM (inactive); in test [14] it was 32.6 µM (inactive); in test [15], 21.2 µM (inactive); in [16] it was 21.7 µM (inactive); in test [17], 17.1 µM (inactive); in [18] it was 99.8 µM (inactive). The GI50 is 42.2 µM (inactive) in test [19] and 31.2 µM (inactive) in test [20].

The record behind these values is ChEMBL document CHEMBL1201862, “PubChem BioAssay data set” (2004).
